Measured values published in PubChem BioAssay (NCI).
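96-well plates; 48 h exposure; 5 concentrations. Endpoints by linear interpolation between flanking doses. Not reached: highest tested concentration assigned. GI50 is the concentration that inhibits growth by half. TGI is the concentration that stops growth completely.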

Experiments:
Assay in all cases: NCI anticancer screen, dose series, 48 h; in the data active means GI50 below about 0.43 µM; inactive means the rest
[1] = tested on: COLO 205 colon
[2] = tested on: SNB-75 CNS
[3] = tested on: LOX IMVI melanoma
[4] = tested on: SF-295 CNS
[5] = tested on: SF-268 CNS
[6] = tested on: TK-10 renal
[7] = tested on: A549 NSCLC
[8] = tested on: CAKI-1 renal
[9] = tested on: U251 CNS
[10] = tested on: NCI-H460 lung
[11] = tested on: SK-MEL-28 melanoma
[12] = tested on: SK-MEL-5 melanoma
[13] = tested on: OVCAR-4 ovarian
[14] = tested on: NCI-H522 lung
[15] = tested on: NCI/ADR-RES ovarian
[16] = tested on: SNB-19 CNS

CC(NC(C)(C)C)C(=O)c1cccc(Cl)c1 (centres undefined)
> 100 µM: TGI [1] | TGI [2] | TGI [3] | TGI [4] | TGI [5] | TGI [6] | TGI [7] | TGI [8] | TGI [9] | TGI [10] | TGI [11] | TGI [12] | TGI [13] | TGI [14]

CC(C)(C)c1cc(C2COC(c3cc(C(C)(C)C)c(O)c(C(C)(C)C)c3)CO2)cc(C(C)(C)C)c1O (centres undefined)
> 100 µM: TGI [15] | TGI [2] | TGI [3] | TGI [4] | TGI [5] | TGI [6] | TGI [7] | TGI [8] | TGI [9] | TGI [11] | TGI [12] | TGI [13] | TGI [14] | TGI [16]
96.7 µM: TGI [1]

CC(C)=C/C=C1/CS(=O)(=O)C=C1C
> 100 µM: TGI [1] | TGI [15] | TGI [2] | TGI [3] | TGI [4] | TGI [6] | TGI [7] | TGI [8] | TGI [9] | TGI [11] | TGI [12] | TGI [14] | TGI [16]

CC(C)C1=CC23CCC4C(C)(C(=O)O)CCCC4(C)C2CC1C1C(=O)N(c2ccc(C(=O)O)cc2)C(=O)C13 (centres undefined)
> 100 µM: TGI [1] | TGI [15] | TGI [2] | TGI [3] | TGI [4] | TGI [5] | TGI [6] | TGI [7] | TGI [8] | TGI [9] | TGI [10] | TGI [11] | TGI [12] | TGI [13] | TGI [14] | TGI [16]

Fc1ccccc1C1SCc2nc3cc4ccccc4cc3n21 (centres undefined)
> 100 µM: TGI [1] | TGI [15] | TGI [2] | TGI [4] | TGI [5] | TGI [6] | TGI [7] | TGI [8] | TGI [9] | TGI [10] | TGI [11] | TGI [12] | TGI [13] | TGI [14] | TGI [16]

COc1cc(/C=C(/C#N)C(N)=O)ccc1O
> 100 µM: TGI [1] | TGI [15] | TGI [3] | TGI [4] | TGI [5] | TGI [7] | TGI [8] | TGI [9] | TGI [10] | TGI [11] | TGI [12] | TGI [13] | TGI [14] | TGI [16]
> 85.6 µM: TGI [2]

CCC(c1c[nH]c2ccc(Br)cc12)c1c[nH]c2ccc(Br)cc12
18.1 µM: TGI [14]
6.58 µM: TGI [8]
18.8 µM: TGI [4]
26.8 µM: TGI [12]
25.4 µM: TGI [11]
20.7 µM: TGI [5]
13.3 µM: TGI [15] | TGI [9]
6.66 µM: TGI [3]
6.09 µM: TGI [1]
21.4 µM: TGI [16]
22.9 µM: TGI [6]
6.82 µM: TGI [10]
8.11 µM: TGI [13]
15 µM: TGI [7]

Cc1n[nH]c(=O)n1/N=C/c1ccc([N+](=O)[O-])o1
20.8 µM: TGI [1]
49.4 µM: TGI [10]
35.7 µM: TGI [7]
> 53.7 µM: TGI [9]
> 100 µM: TGI [2] | TGI [4] | TGI [16]
70.3 µM: TGI [15]
27.1 µM: TGI [3]
28.3 µM: TGI [11]
45.6 µM: TGI [5]
12.1 µM: TGI [12]
32.3 µM: TGI [13]
36.8 µM: TGI [6]
19.9 µM: TGI [8]

Cc1ccc(N=Nc2c(O)c(C(=O)Nc3ccccc3)cc3ccccc23)c([N+](=O)[O-])c1
> 100 µM: TGI [1] | TGI [15] | TGI [2] | TGI [3] | TGI [4] | TGI [5] | TGI [6] | TGI [7] | TGI [8] | TGI [9] | TGI [11] | TGI [12] | TGI [13] | TGI [14] | TGI [16]

CN(CCCNC(=O)c1nn(-c2ccc(Cl)cc2Cl)c2c1Cc1ccccc1-2)CCCNC(=O)c1nn(-c2ccc(Cl)cc2Cl)c2c1Cc1ccccc1-2
3.55 µM: TGI [15]
3.26 µM: TGI [1] | TGI [3]
3.19 µM: TGI [10]
3.24 µM: TGI [16]
3.14 µM: TGI [6]
3.15 µM: TGI [4]
2.95 µM: TGI [8]
2.92 µM: TGI [2]
2.58 µM: TGI [13]
3.3 µM: TGI [11]
2.9 µM: TGI [14]
3.05 µM: TGI [12]
3.64 µM: TGI [7]
3.1 µM: TGI [9]

CCCc1ccc(NCc2cc(OC)c(OC)c(OC)c2)cc1
30.7 µM: TGI [3]
94.8 µM: TGI [2]
79.2 µM: TGI [5]
> 100 µM: TGI [6] | TGI [7] | TGI [10] | TGI [13] | TGI [16]
81.9 µM: TGI [9]
34.3 µM: TGI [14]
inactive: GI50 [14] 17.3 µM
32.5 µM: TGI [12]
73.9 µM: TGI [11]

O=C1C[C@@H](c2ccccc2)O[C@@H](c2ccccc2)C1
> 100 µM: TGI [1] | TGI [15] | TGI [2] | TGI [3] | TGI [4] | TGI [5] | TGI [7] | TGI [8] | TGI [9] | TGI [10] | TGI [12] | TGI [13] | TGI [16]

Cc1ccc(CC(C)N)cc1 (centres undefined)
> 100 µM: TGI [1] | TGI [2] | TGI [3] | TGI [4] | TGI [5] | TGI [6] | TGI [7] | TGI [8] | TGI [9] | TGI [10] | TGI [11] | TGI [12] | TGI [13] | TGI [14] | TGI [16]
